# From patent US20230069963A1, “PYRAZOLO[1,5-A]PYRIMIDINE MACROCYCLIC COMPOUND” (priority 2018, published 2023)
# Where a name gives a salt, the structure may show the parent alone.
# System: RSV ATCC VR-1540 (A2)
# Assay: microbe, parasite or virus in culture
# Format: cell-based
# Conditions: human respiratory syncytial virus, HEp-2, 96 h; Hep2 cells, incubated for 4 days, CPE detected with XTT assay (absorbance 450 nm); read-out: EC50 (nmol/L) against RSV A2 strain
row,SMILES,EC50 [nmol/L]
1,"CCCc1cc2n3nc(cc3n1)[C@@H]1CCCCN1C(=O)c1cc(CN)ccc1OCC(=O)NCCN2C [Example 101, (18aS)-2-(aminomethyl)-11-methyl-13-propyl-8,9,10,11,19,20,21,22-octahydro-18aH,24H-18,15-(metheno)pyrido[2,1-l]pyrimido[6,1-h][1,4,7,9,10,13]benzoxapentaazacyclohexadecine-7,24(6H)-dione]",11.9
2,"Cc1ccc2c(c1)C(=O)N1CCCC[C@H]1c1cc3nc(C4CC4)cc(n3n1)N(C)CCNC(=O)CO2 [Example 102, (18aS)-13-cyclopropyl-2,11-dimethyl-8,9,10,11,19,20,21,22-octahydro-18aH,24H-18,15-(metheno)pyrido[2,1-l]pyrimido[6,1-h][1,4,7,9,10,13]benzoxapentaazacyclohexadecine-7,24(6H)-dione]",0.239
3,"CN1CCNC(=O)COc2ccc(Cl)cc2C(=O)N2CCCCC2c2cc3nc(C4CC(O)C4)cc1n3n2 [Example 111, (18aS)-2-chloro-13-(cis-3-hydroxycyclobutyl)-11-methyl-8,9,10,11,19,20,21,22-octahydro-18aH,24H-18,15-(metheno)pyrido[2,1-l]pyrimido[6,1-h][1,4,7,9,10,13]benzoxapentaazacyclohexadecine-7,24(6H)-dione]",0.448
4,"O=C1COc2ccc(F)cc2C(=O)N2CCCC[C@H]2c2cc3nc(C4CC4)cc(n3n2)CCCN1 [Example 121, (18aS)-13-cyclopropyl-2-fluoro-8,9,10,11,19,20,21,22-octahydro-18aH,24H-18,15-(metheno)pyrido[2,1-l]pyrimido[6,1-h][1,4,9,10,13]benzoxatemazacyclohexadecine-7,24(6H)-dione]",11
5,"CN1CCNCCOc2ccc(F)cc2C(=O)N2CCCC[C@H]2c2cc3nc(N4CCC4)cc1n3n2 [Example 133, (18aS)-13-(azetidin-1-yl)-2-fluoro-11-methyl-6,7,8,9,10,11,19,20,21,22-decahydro-18aH,24H-18,15-(metheno)pyrido[2,1-l]pyrimido[6,1-h][1,4,7,9,10,13]benzoxapentaazacyclohexadecin-24-one]",1.36
6,"CC1COc2ccc(F)cc2C(=O)N2CCCCC2c2cc3nc(N4CC(N)C4)cc(n3n2)N(C)CCN1 [Example 145, (18aS)-13-(3-aminoazetidin-1-yl)-2-fluoro-7,11-dimethyl-6,7,8,9,10,11,19,20,21,22-decahydro-18aH,24H-18,15-(metheno)pyrido[2,1-l]pyrimido[6,1-h][1,4,7,9,10,13]benzoxapentaazacyclohexadecin-24-one]",17.5
7,"CN1CCOc2ccc(Cl)cc2C(=O)N2CCCC[C@H]2c2cc3nc(N4CC(N)C4)cc(n3n2)N(C)CC1 [Example 151, (18aS)-13-(3-aminoazetidin-1-yl)-2-chloro-8,11-dimethyl-6,7,8,9,10,11,19,20,21,22-decahydro-18aH,24H-18,15-(metheno)pyrido[2,1-l]pyrimido[6,1-h][1,4,7,9,10,13]benzoxapentaazacyclohexadecin-24-one]",17
8,"CN1CCOc2ccc(Cl)cc2C(=O)N2CCCC[C@H]2c2cc3nc(NC4CNC4)cc(n3n2)N(C)CC1 [Example 161, (18aS)-13-[(azetidin-3-yl)amino]-2-chloro-8,11-dimethyl-6,7,8,9,10,11,19,20,21,22-decahydro-18aH,24H-18,15-(metheno)pyrido[2,1-l]pyrimido[6,1-h][1,4,7,9,10,13]benzoxapentaazacyclohexadecin-24-one]",19.6
9,"CN1CCOc2ccc(Cl)cc2C(=O)N2CCCC[C@H]2c2cc3nc(N4CC(F)C4)cc(n3n2)N(C)CC1 [Example 162, (18aS)-2-chloro-13-(3-fluoroazetidin-1-yl)-8,11-dimethyl-6,7,8,9,10,11,19,20,21,22-decahydro-18aH,24H-18,15-(metheno)pyrido[2,1-l]pyrimido[6,1-h][1,4,7,9,10,13]benzoxapentaazacyclohexadecin-24-one]",4.51
10,"CN1CCOc2ccc(Cl)cc2C(=O)N2CCCC[C@H]2c2cc3nc(N4CC(CN)C4)cc(n3n2)N(C)CC1 [Example 163, (18aS)-13-[3-(aminomethyl)azetidin-1-yl]-2-chloro-8,11-dimethyl-6,7,8,9,10,11,19,20,21,22-decahydro-18aH,24H-18,15-(metheno)pyrido[2,1-l]pyrimido[6,1-h][1,4,7,9,10,13]benzoxapentaazacyclohexadecin-24-one]",~10
11,"Cc1ccc2c(c1)C(=O)N1CCCC[C@H]1c1cc3nc(N4CCC4)cc(n3n1)N(C)CCN(C)CCO2 [Example 173, (18aS)-13-(azetidin-1-yl)-2,8,11-trimethyl-6,7,8,9,10,11,19,20,21,22-decahydro-18aH,24H-18,15-(metheno)pyrido[2,1-l]pyrimido[6,1-h][1,4,7,9,10,13]benzoxapentaazacyclohexadecin-24-one]",1.3
12,"Cc1ccc2c(c1)C(=O)N1CCCC[C@H]1c1cc3nc(N4CCC4)cc(n3n1)N(C)CCN(S(N)(=O)=O)CCO2 [Example 178, (18aS)-13-(azetidin-1-yl)-2,11-dimethyl-24-oxo-6,7,10,11,19,20,21,22-octahydro-8aH,24H-18,15-(metheno)pyrido[2,1-l]pyrimido[6,1-h][1,4,7,9,10,13]benzoxapentaazacyclohexadecine-8(9H)-sulfonamide]",4.48
13,"Cc1ccc2c(c1)C(=O)N1CCCC[C@H]1c1cc3nc(N4CC(O)C4)cc(n3n1)N(C)CCN(S(C)(=O)=O)CCO2 [Example 179, (18aS)-13-(3-hydroxyazetidin-1-yl)-8-(methanesulfonyl)-2,11-dimethyl-6,7,8,9,10,11,19,20,21,22-decahydro-18aH,24H-18,15-(metheno)pyrido[2,1-l]pyrimido[6,1-h][1,4,7,9,10,13]benzoxapentaazacyclohexadecin-24-one]",7.33
14,"Cc1ccc2c(c1)C(=O)N1CCCC[C@H]1c1cc3nc(N4CC(N)C4)cc(n3n1)N(C)CCN(S(C)(=O)=O)CCO2 [Example 180, (18aS)-13-(3-aminoazetidin-1-yl)-8-(methanesulfonyl)-2,11-dimethyl-6,7,8,9,10,11,19,20,21,22-decahydro-18aH,24H-18,15-(metheno)pyrido[2,1-l]pyrimido[6,1-h][1,4,7,9,10,13]benzoxapentaazacyclohexadecin-24-one]",33
15,"Cc1ccc2c(c1)C(=O)N1CCCC[C@H]1c1cc3nc(NCCN)cc(n3n1)N(C)CCN(S(C)(=O)=O)CCO2 [Example 182, (18aS)-13-[(2-aminoethyl)amino]-8-(methanesulfonyl)-2,11-dimethyl-6,7,8,9,10,11,19,20,21,22-decahydro-18aH,24H-18,15-(metheno)pyrido[2,1-l]pyrimido[6,1-h][1,4,7,9,10,13]benzoxapentaazacyclohexadecin-24-one hydrochloride]",14.2
16,"CCC1c2cc3nc(N4CC[C@H](N)C4)cc(n3n2)N(C)CCN(S(C)(=O)=O)CCOc2ccc(C)cc2C(=O)N1C (stereo partly drawn) [Example 195, (18S)-3-[(3S)-3-aminopyrrolidin-1-yl]-18-ethyl-8-(methanesulfonyl)-5,14,17-trimethyl-5,6,7,8,9,10,17,18-octahydro-16H-19,1-(metheno)pyrimido[6,1-h][1,4,7,9,11,13]benzoxapentaazacyclohexadecin-16-one]",20.5
17,"CN1CCNCCOc2ccc(F)cc2C(=O)N2CCCC[C@H]2c2cc3nc(N4CCC4)c(F)c1n3n2 [Example 198, (18aS)-13-(azetidin-1-yl)-2,12-difluoro-11-methyl-6,7,8,9,10,11,19,20,21,22-decahydro-18aH,24H-18,15-(metheno)pyrido[2,1-l]pyrimido[6,1-h][1,4,7,9,10,13]benzoxapentaazacyclohexadecin-24-one]",2.82
18,"CC[C@H]1c2cc3nc(NCC(C)(C)N)cc(n3n2)N(C)CCCCOc2ccc(C)cc2C(=O)N1C [Example 208, (17S)-3-[(2-amino-2-methylpropyl)amino]-17-ethyl-5,13,16-trimethyl-6,7,8,9,16,17-hexahydro-5H,15H-18,1-(metheno)pyrimido[6,1-g][1,6,8,9,12]benzoxatetraazacyclopentadecin-15-one hydrochloride]",4.33
19,"CCC1c2cc3nc(N4CC[C@H](N)C4)cc(n3n2)N(C)CCCCOc2ccccc2C(=O)N1C (stereo partly drawn) [Example 213, (17S)-3-[(3S)-3-aminopyrrolidin-1-yl]-17-ethyl-5,16-dimethyl-6,7,8,9,16,17-hexahydro-5H,15H-18,1-(metheno)pyrimido[6,1-g][1,6,8,9,12]benzoxatetraazacyclopentadecin-S5-one]",7.81
20,"CC[C@H]1c2cc3nc(N4CC[C@H](N)C4)cc(n3n2)N(C)CCCCN(C)c2ccc(C)cc2C(=O)N1C [Example 218, (17S)-3-[(3S)-3-aminopyrrolidin-1-yl]-17-ethyl-5,10,13,16-tetramethyl-5,6,7,8,9,10,16,17-octahydro-15H-18,1-(metheno)pyrimido[6,1-g][1,6,8,9,12]benzopentaazacyclopentadecin-15-one]",9.8
21,"CC[C@H]1c2cc3nc(OC)c(C)c(n3n2)N(C)CCCCNc2ccc(C)cc2C(=O)N1C [Example 222a, (17S)-17-ethyl-3-methoxy-4,5,13,16-tetramethyl-5,6,7,8,9,10,16,17-octahydro-15H-18,1-(metheno)pyrimido[6,1-g][1,6,8,9,12]benzopentaazacyclopentadecin-15-one]",7.17
22,"CC[C@H]1c2cc3nc(N4CC[C@H](N)C4)c(C)c(n3n2)N(C)CCCCNc2ccc(C)cc2C(=O)N1C [Example 223, (17S)-3-[(3S)-3-aminopyrrolidin-1-yl]-17-ethyl-4,5,13,16-tetramethyl-5,6,7,8,9,10,16,17-octahydro-15H-18,1-(metheno)pyrimido[6,1-g][1,6,8,9,12]benzopentaazacyclopentadecin-15-one]",1.34
23,"CC[C@H]1c2cc3nc(N4CC[C@H](N)C4)c(C)c(n3n2)N(C)CCCCCOc2ccccc2C(=O)N1C [Example 233, (18S)-3-[(3S)-3-aminopyrrolidin-1-yl]-18-ethyl-4,5,17-trimethyl-5,6,7,8,9,10,17,18-octahydro-16H-19,1-(metheno)pyrimido[6,1-h][1,7,9,10,13]benzoxatetraazacyclohexadecin-16-one]",39.5
